Experiment [1] addresses JAK3 (Homo sapiens (Human), UniProt P52333). The experiment is described as follows: JAK3 enzyme activity inhibition (LANCE Ultra kinase assay). Particulars: read-out: JAK3 inhibitory activity IC50. In general terms: In TR-FRET formats the signal depends on donor and acceptor labels being close together.
Experiment [2] deals with JAK2 (Homo sapiens (Human), UniProt O60674). The experiment can be described thus: JAK2 enzyme activity inhibition (LANCE Ultra kinase assay).

The structures appear in SMILES notation. Where two headings read alike, the source gives them in different places.

JAK2, sequence (O60674 whole entry): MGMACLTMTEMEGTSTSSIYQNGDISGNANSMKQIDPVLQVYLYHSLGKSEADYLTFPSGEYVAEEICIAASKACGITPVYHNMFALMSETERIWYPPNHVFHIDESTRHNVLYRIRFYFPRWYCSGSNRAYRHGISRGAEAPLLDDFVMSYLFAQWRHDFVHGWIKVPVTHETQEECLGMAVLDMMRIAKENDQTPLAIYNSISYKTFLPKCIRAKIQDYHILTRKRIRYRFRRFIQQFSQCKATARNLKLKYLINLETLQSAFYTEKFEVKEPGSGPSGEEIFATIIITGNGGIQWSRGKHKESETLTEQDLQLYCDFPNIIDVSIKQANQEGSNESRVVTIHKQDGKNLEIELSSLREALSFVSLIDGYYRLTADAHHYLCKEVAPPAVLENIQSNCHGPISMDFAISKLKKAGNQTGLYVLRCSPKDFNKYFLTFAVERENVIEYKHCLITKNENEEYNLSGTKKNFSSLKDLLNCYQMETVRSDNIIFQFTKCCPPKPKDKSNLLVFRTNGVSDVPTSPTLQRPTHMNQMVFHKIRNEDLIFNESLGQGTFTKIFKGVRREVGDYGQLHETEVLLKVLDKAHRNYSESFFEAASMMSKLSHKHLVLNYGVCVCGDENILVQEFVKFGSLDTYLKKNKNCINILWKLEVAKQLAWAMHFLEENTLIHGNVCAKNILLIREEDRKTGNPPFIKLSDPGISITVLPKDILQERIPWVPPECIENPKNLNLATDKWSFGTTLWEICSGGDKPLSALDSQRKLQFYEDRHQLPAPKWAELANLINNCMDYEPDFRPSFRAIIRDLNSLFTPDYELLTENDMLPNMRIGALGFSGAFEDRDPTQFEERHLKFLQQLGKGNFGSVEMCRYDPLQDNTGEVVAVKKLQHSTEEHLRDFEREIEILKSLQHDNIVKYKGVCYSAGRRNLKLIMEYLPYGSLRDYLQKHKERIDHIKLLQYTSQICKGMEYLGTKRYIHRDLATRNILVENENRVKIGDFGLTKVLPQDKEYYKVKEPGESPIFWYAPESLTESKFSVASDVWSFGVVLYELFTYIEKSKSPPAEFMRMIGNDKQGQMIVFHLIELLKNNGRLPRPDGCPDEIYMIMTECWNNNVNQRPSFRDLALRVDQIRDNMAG
JAK3, sequence (P52333 whole entry): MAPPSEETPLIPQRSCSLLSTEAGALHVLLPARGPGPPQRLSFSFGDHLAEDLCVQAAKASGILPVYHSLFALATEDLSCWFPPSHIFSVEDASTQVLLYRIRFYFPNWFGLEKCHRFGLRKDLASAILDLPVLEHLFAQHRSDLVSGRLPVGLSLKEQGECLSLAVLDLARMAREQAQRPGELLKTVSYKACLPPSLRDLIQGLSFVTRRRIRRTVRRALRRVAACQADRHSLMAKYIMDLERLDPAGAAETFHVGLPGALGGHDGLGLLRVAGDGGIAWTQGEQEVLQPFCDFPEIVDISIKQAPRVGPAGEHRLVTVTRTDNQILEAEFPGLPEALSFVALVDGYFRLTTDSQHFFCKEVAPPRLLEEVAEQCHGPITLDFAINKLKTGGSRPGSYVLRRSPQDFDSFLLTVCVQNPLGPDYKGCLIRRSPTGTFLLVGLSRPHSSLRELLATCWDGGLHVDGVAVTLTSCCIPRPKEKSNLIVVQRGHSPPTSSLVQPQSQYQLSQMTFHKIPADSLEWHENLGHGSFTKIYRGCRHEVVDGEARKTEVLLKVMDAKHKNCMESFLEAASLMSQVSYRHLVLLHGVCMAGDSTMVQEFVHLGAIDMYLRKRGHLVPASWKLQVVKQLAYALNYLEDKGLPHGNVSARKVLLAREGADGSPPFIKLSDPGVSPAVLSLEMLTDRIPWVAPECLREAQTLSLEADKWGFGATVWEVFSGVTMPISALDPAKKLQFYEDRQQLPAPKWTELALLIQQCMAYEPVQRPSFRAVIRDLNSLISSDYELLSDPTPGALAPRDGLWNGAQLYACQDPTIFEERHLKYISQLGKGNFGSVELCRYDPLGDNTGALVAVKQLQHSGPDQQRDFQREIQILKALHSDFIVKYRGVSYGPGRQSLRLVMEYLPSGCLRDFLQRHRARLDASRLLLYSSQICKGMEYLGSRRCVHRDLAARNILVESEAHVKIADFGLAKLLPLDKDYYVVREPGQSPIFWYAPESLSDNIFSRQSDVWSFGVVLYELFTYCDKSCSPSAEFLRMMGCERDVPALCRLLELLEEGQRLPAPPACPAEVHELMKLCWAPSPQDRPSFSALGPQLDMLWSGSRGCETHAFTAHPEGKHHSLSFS

For orientation: IC50 means the point on the concentration scale where inhibition reaches its midpoint. As for `CCS(=N)(=O)N1CC(CC#N)(n2cc(-c3ncnc4[nH]ccc34)cn2)C1` (single isomer, unassigned) [LW104-J], the half-inhibitory concentration (IC50) in experiment [1] is 116 nM; in experiment [2] it was 0.1 to 10 nM.

With `CCS(=N)(=O)N1CC(CC#N)(n2cc(-c3ncnc4[nH]ccc34)cn2)C1` (single isomer, unassigned) [LW104-K], the IC50 was 69.3 nM in experiment [1] and 0.1 to 10 nM in experiment [2] (read-out: JAK2 inhibitory activity IC50, class symbols).

`CC(N=[S@@](C)(=O)N1CC(CC#N)(n2cc(-c3ncnc4[nH]ccc34)cn2)C1)c1ccccc1` (stereo in doubt) [LW104-G] returned an IC50 in experiment [2] of 10 to 100 nM. Consider `CS(=N)(=O)N1CC(CC#N)(n2cc(-c3ncnc4[nH]ccc34)cn2)C1` (centres unmarked) [LW104-A], for which the IC50 in experiment [1] is 98.3 nM; in experiment [2], 0.1 to 10 nM.

Take `CCS(=N)(=O)N1CC(CC#N)(n2cc(-c3ncnc4[nH]ccc34)cn2)C1` (centres unmarked) [LW104-B]: the figures for the half-maximal inhibitory concentration (IC50) in experiment [1] and in experiment [2] were 136 nM and 0.1 to 10 nM, respectively. Take `N#CCC1(n2cc(-c3ncnc4[nH]ccc34)cn2)CN(S(=N)(=O)c2ccccc2)C1` (centres unmarked) [LW104-C]: the figures for the IC50 in experiment [1] and in experiment [2] were 427 nM and 10 to 100 nM, respectively.

Turning to `CC(C)S(=N)(=O)N1CC(CC#N)(n2cc(-c3ncnc4[nH]ccc34)cn2)C1` (centres unmarked) [LW104-D], in experiment [1], the IC50 is 190 nM. For the compound `N#CCC1(n2cc(-c3ncnc4[nH]ccc34)cn2)CN(S(=N)(=O)C2CC2)C1` (centres unmarked) [LW104-E], the IC50 was 187 nM in experiment [1] and 0.1 to 10 nM in experiment [2]. On to `CN=S(C)(=O)N1CC(CC#N)(n2cc(-c3ncnc4[nH]ccc34)cn2)C1` (centres unmarked) [LW104-F], for which the values for the half-inhibitory concentration (IC50) in experiment [1] and in experiment [2] were 145 nM and 0.1 to 10 nM, respectively.

Turning to `CC(C)N=S(C)(=O)N1CC(CC#N)(n2cc(-c3ncnc4[nH]ccc34)cn2)C1` (centres unmarked) [LW104-I], the IC50 was 649 nM in experiment [1] and 10 to 100 nM in experiment [2].

For `CN=S(=O)(C1CC1)N1CC(CC#N)(n2cc(-c3ncnc4[nH]ccc34)cn2)C1` (centres unmarked) [LW104-L], the values for the IC50 in experiment [1] and in experiment [2] were 158 nM and 0.1 to 10 nM, respectively. For the compound `CCN=S(=O)(C1CC1)N1CC(CC#N)(n2cc(-c3ncnc4[nH]ccc34)cn2)C1` (centres unmarked) [LW104-M], the IC50 in experiment [1] stood at 194 nM. In the case of `N#CCC1(n2cc(-c3ncnc4[nH]ccc34)cn2)CN(S(=O)(=NC2CC2)C2CC2)C1` (centres unmarked) [LW104-N], the IC50 in experiment [1] is 203 nM; in experiment [2] it was 0.1 to 10 nM. As for `CCS(=O)(=NC1CC1)N1CC(CC#N)(n2cc(-c3ncnc4[nH]ccc34)cn2)C1` (centres unmarked) [LW104-O], in experiment [1], the IC50 stood at 294 nM. For the compound `CCS(=O)(=NC)N1CC(CC#N)(n2cc(-c3ncnc4[nH]ccc34)cn2)C1` (centres unmarked) [LW104-P], the IC50 in experiment [1] was 216 nM; in experiment [2] it was 10 to 100 nM.

These data come from US11524961B2, “JAK kinase inhibitor and preparation method and use thereof” (Shanghai Longwood Biopharmaceuticals Co., Ltd., priority 2017, dated 2022).
